Test results reported in US12344610B2, “APOL1 inhibitors and methods of use” (Maze Therapeutics, Inc., priority 2022, dated 2025).
Like-named read-outs stand apart in the source and are kept apart here.

Columns and labels:
Type in all cases: cell-based
Details in all cases: geometric mean of at least 2 assay runs, † = single assay run
[1] = tested on: HEK293 cells overexpressing APOL1 G2; experiment: APOL1 G2 HEK293 cell rescue assay (reversal of cell death caused by overexpression of APOL1)
In short: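 Each compound tested in duplicate wells on one plate per run, with values usually the geometric mean across at least two runs on different days, occasionally from one run only. Read-out: concentration giving half-maximal rescue of APOL1 G2 overexpression-induced death of HEK293 cells.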

[2] = tested on: Trypanosoma brucei Lister 427 VSG221 with APOL1 G0 recombinant protein; experiment: APOL1 G0 trypanosome cell rescue assay (Example B5)
In short: (§1)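 Recombinant APOL1 protein, dispensed from a 2 μg/mL stock, and 250 T. brucei per well were co-incubated with test compound (0.4% DMSO) for 20 h. Viability: CellTiter-Glo luminescence.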

[3] = tested on: Trypanosoma brucei Lister 427 VSG221 with APOL1 G1 recombinant protein; experiment: APOL1 G1 trypanosome cell rescue assay (Example B5)
In short: as §1

[4] = tested on: Trypanosoma brucei Lister 427 VSG221 with APOL1 G2 recombinant protein; experiment: APOL1 G2 trypanosome cell rescue assay (Example B5)
In short: as §1

[5] = Homo sapiens, HEK293, HEK293 overexpressing APOL1 G2
[6] = Trypanosoma brucei, 20 h, read-out: APOL1 G0 Trypanosome Rescue EC50, Trypanosoma brucei Lister 427 VSG221 with APOL1 G0 recombinant protein, 20 hours, CellTiter-Glo
[7] = Trypanosoma brucei, 20 h, read-out: APOL1 G1 Trypanosome Rescue EC50, Trypanosoma brucei Lister 427 VSG221 with APOL1 G1 recombinant protein, 20 hours, CellTiter-Glo
[8] = Trypanosoma brucei, 20 h, read-out: APOL1 G2 Trypanosome Rescue EC50, Trypanosoma brucei Lister 427 VSG221 with APOL1 G2 recombinant protein, 20 hours, CellTiter-Glo
[9] = read-out: APOL1 G0 Trypanosome Rescue EC50, Trypanosoma brucei Lister 427 VSG221 with APOL1 G0 recombinant protein, 20 hours, CellTiter-Glo
[10] = read-out: APOL1 G1 Trypanosome Rescue EC50, Trypanosoma brucei Lister 427 VSG221 with APOL1 G1 recombinant protein, 20 hours, CellTiter-Glo
[11] = read-out: APOL1 G2 Trypanosome Rescue EC50, Trypanosoma brucei Lister 427 VSG221 with APOL1 G2 recombinant protein, 20 hours, CellTiter-Glo

SMILES: CN1C(=O)CCc2cc(OCCN3CCC4(CC3)C(=O)Nc3ccc(C#N)cc34)ccc21 [Compound 95, 1′-{2-[(1-methyl-2-oxo-1,2,3,4-tetrahydroquinolin-6-yl)oxy]ethyl}-2-oxo-1,2-dihydrospiro[indole-3,4′-piperidine]-5-carbonitrile]
- EC50 [1, 5]: 246 nM
- EC50 [2, 6]: 592 nM
- EC50 [3, 7]: 703 nM
- EC50 [4, 8]: 222 nM

SMILES: CC(C)N1C(=O)CCc2cc(OCCN3CCC4(CC3)C(=O)Nc3ccc(C#N)cc34)ccc21 [Compound 96, 2-oxo-1′-(2-{[2-oxo-1-(propan-2-yl)-1,2,3,4-tetrahydroquinolin-6-yl]oxy}ethyl)-1,2-dihydrospiro[indole-3,4′-piperidine]-5-carbonitrile]
- EC50 [1, 5]: 50.5 nM
- EC50 [2, 6]: 122 nM
- EC50 [3, 7]: 143 nM
- EC50 [4, 8]: 53 nM

SMILES: CC(C)N1C(=O)CCc2cc(OCCN3CCC4(CC3)C(=O)Nc3ccc(Cl)cc34)ccc21 [Compound 97, 5-chloro-1′-(2-{[2-oxo-1-(propan-2-yl)-1,2,3,4-tetrahydroquinolin-6-yl]oxy}ethyl)-1,2-dihydrospiro[indole-3,4′-piperidin]-2-one]
- EC50 [1, 5]: 44.6 nM
- EC50 [2, 6]: 99 nM
- EC50 [3, 7]: 98.4 nM
- EC50 [4, 8]: 40.6 nM

SMILES: CS(=O)(=O)N(CCO)c1ccc(OCCN2CCC3(CC2)C(=O)Nc2ccc(Cl)cc23)cc1 [Compound 98, N-[4-(2-{5-chloro-2-oxo-1,2-dihydrospiro[indole-3,4′-piperidin]-1′-yl}ethoxy)phenyl]-N-(2-hydroxyethyl)methanesulfonamide]
- EC50 [1, 5]: 54.4 nM
- EC50 [2, 6]: 207 nM
- EC50 [3, 7]: 259 nM
- EC50 [4, 8]: 72.2 nM

SMILES: O=C1CCc2cc(OCCN3CCC4(CC3)C(=O)Nc3ccc(Cl)cc34)cnc2N1[C@H]1C[C@H](O)C1 [Compound 267, 5-chloro-1′-[2-({7-oxo-8-[(trans)-3-hydroxycyclobutyl]-5,6,7,8-tetrahydro-1,8-naphthyridin-3-yl}oxy)ethyl]-1,2-dihydrospiro[indole-3,4′-piperidin]-2-one]
- EC50 [1, 5]: 37.8 nM
- EC50 [2, 6]: 95.4 nM
- EC50 [3, 7]: 115 nM
- EC50 [4, 8]: 33.7 nM

SMILES: CS(=O)(=O)C1(c2ccc(OCCN3CCC4(CC3)C(=O)Nc3ccc(Cl)cc34)cc2)CC(O)C1 (stereo not drawn) [Compound 269, 5-chloro-1′-(2-{4-[(cis) or (trans)-3-hydroxy-1-methanesulfonylcyclobutyl]phenoxy}ethyl)-1,2-dihydrospiro[indole-3,4′-piperidin]-2-one]
- EC50 ([1]; HEK293 overexpressing APOL1 G2): 102 nM
- EC50 [2, 9]: 207 nM
- EC50 [3, 10]: 277 nM
- EC50 [4, 11]: 79.7 nM

SMILES: CS(=O)(=O)C1(c2ccc(OCCN3CCC4(CC3)C(=O)Nc3ccc(Cl)cc34)cc2)CC(O)C1 (stereo not drawn) [Compound 270, 5-chloro-1′-(2-{4-[(trans) or (cis)-3-hydroxy-1-methanesulfonylcyclobutyl]phenoxy}ethyl)-1,2-dihydrospiro[indole-3,4′-piperidin]-2-one]
- EC50 ([1]; HEK293 overexpressing APOL1 G2): 25.6 nM
- EC50 [2, 9]: 72.5 nM
- EC50 [3, 10]: 82.2 nM
- EC50 [4, 11]: 25.3 nM

SMILES: C[C@]1(O)C[C@@H](n2c(=O)cnc3cc(OCCN4CCC5(CC4)C(=O)Nc4ccc(Cl)cc45)cnc32)C1 [Compound 358, 5-chloro-1′-[2-({3-oxo-4-[(cis)-3-hydroxy-3-methylcyclobutyl]-3H,4H-pyrido[2,3-b]pyrazin-7-yl}oxy)ethyl]-1,2-dihydrospiro[indole-3,4′-piperidin]-2-one]
- EC50 [1, 5]: 65 nM
- EC50 [2, 6]: 62.1 nM
- EC50 [3, 7]: 75.2 nM
- EC50 [4, 8]: 31.3 nM

SMILES: CC1(O)CN(c2ncc(OCCN3CCC4(CC3)C(=O)Nc3ccc(C(F)F)cc34)cn2)C1 [Compound 395, 5-(difluoromethyl)-1′-(2-{[2-(3-hydroxy-3-methylazetidin-1-yl)pyrimidin-5-yl]oxy}ethyl)-1,2-dihydrospiro[indole-3,4′-piperidin]-2-one]
- EC50 [1, 5]: 86.8 nM
- EC50 [2, 6]: 240 nM
- EC50 [3, 7]: 312 nM
- EC50 [4, 8]: 106 nM
